# Measurements: paper PMC9204602, “Optimized Anchor-Modified Peptides Targeting Mutated RAS Are Promising Candidates for Immunotherapy” (Frontiers in Immunology, 2022)
# No end group written: not given here.
# Tested on: transgenic humanized HLA-A2/DR1 mice
# Assay: Immunization of transgenic humanized HLA-A2/DR1 mice, ex vivo splenocyte stimulation
# Format: in vivo, mouse
# Settings: 100 μg peptide s.c. days 0, 14, 21 with 25 μg Poly I:C and 10 μg Pan-DR peptide; splenocytes one week after third injection restimulated overnight with 10 μg/mL peptide, intracellular IFN-γ; 5 mice
row,Compound,CD8+ T cells in the spleen reacting to the minimal L2-9-mer peptide
1,MTEYKL L VVGA V GV GKSALTIQLIQNHFVDE [31-mer G12V peptide],about 8%

# Same assay, conditions: same immunization; HLA-A*02:01-positive/G12V-positive CFPAC-1, overnight incubation, intracellular IFN-γ
row,Compound,Recognition of CFPAC-1 cells by CD8+ T cells of immunized mice
1,MTEYKL L VVGA V GV GKSALTIQLIQNHFVDE [31-mer G12V peptide],recognized

# Same assay, conditions: same immunization; ex vivo restimulation with WT-9-mer
row,Compound,Recognition of the wild-type peptide by CD8+ T cells of immunized mice
1,MTEYKL L VVGA V GV GKSALTIQLIQNHFVDE [31-mer G12V peptide],did not recognize

# Same assay, conditions: same immunization; ex vivo restimulation with original 9-mer
row,Compound,Share of L2-9-mer-reactive CD8+ T cells that also reacted to the original 9-mer epitope
1,MTEYKL L VVGA V GV GKSALTIQLIQNHFVDE [31-mer G12V peptide],half

# Target: HLA-A*02:01 (Homo sapiens, UniProt P04439, D140Y/D185E/D98H/E176V/E277Q/G131W/G231S/I119V/I121R/I166T/I218V/L300P/L318F/N151K/N90K/P208A/P217A/Q86G/Q94H/R138H/R169H/T345S)
# Assay: MHC-I stabilization assay, TAP-deficient T2 cells
# Format: binding
# Settings: not given
row,Compound,EC50 [µM]
1,CC(C)C[C@H](NC(=O)[C@@H](N)CCCCN)C(=O)N[C@H](C(=O)N[C@H](C(=O)N[C@H](C(=O)NCC(=O)N[C@@H](C)C(=O)N[C@@H](C)C(=O)NCC(=O)N[C@H](C(=O)O)C(C)C)C(C)C)C(C)C)C(C)C,50.2
2,KLVVVGARGV,151
3,KLVVVGASGV,72
4,LVVVGARGV,429
5,LVVVGASGV,581
6,YLVVGARGV,15.6
7,YLVVGASGV,21.2

# Same assay, conditions: Table 1; T2 cells, HLA-A*02:01 stabilization, serum-free RPMI, 4 hours, 37°C, peptide from 100 µM in at least 8 serial dilution steps, flow cytometry MFI (BB7.2); half-maximal MFI; analyzed three times, mean; read-out: EC50 (µM) Binding assay
row,Compound,EC50 [µM]
1,LLVVGAAGV,17.5
2,LLVVGACGV,73.5
3,LLVVGADGV,83.4
4,LLVVGARGV,23.7
5,LLVVGASGV,90.6
6,LLVVGAVGV,25.6
7,LVVVGAAGV,191
8,LVVVGACGV,619
9,LVVVGADGV,453
10,YLVVGAAGV,16.4
11,YLVVGACGV,26.1
12,YLVVGADGV,13.4
13,YLVVGAVGV,22.9
14,YLVVVGAAGV,27.7
15,YLVVVGACGV,95.5
16,YLVVVGADGV,5.68
17,YLVVVGASGV,10.7
18,YLVVVGAVGV,15.5
19,YVVVGAAGV,117
20,YVVVGACGV,138
21,YVVVGADGV,199
22,YVVVGARGV,51.6
23,YVVVGASGV,207
24,YVVVGAVGV,28.3

# Target: HLA-A*11:01 (Homo sapiens, UniProt P04439, A114D/D185E/E176A/F33Y/L180Q/S129P/T187R)
# Assay: Cell-based competitive MHC-I-binding assay, CJO-A lymphoblastoid cells
# Settings: not given
row,Compound,IC50 [M]
1,"CC[C@H](C)[C@H](NC(=O)[C@@H](N)CO)C(=O)N[C@H](C(=O)N1CCC[C@H]1C(=O)N[C@@H](CO)C(=O)NCC(=O)N1CCC[C@H]1C(=O)N[C@@H](CC(C)C)C(=O)N[C@@H](CCCCN)C(=O)O)[C@@H](C)CC [Flu-MP 13-21, reference compound]",1.44e-06
2,VVGAAGVGK,1.12e-05
3,VVVGAAGVGK,7.03e-06
4,VVVGARGVGK,4.61e-05

# Same assay, conditions: Table S2; […], competition with 500 nM FITC-labelled KVFPK(FITC)ALINK, serum-free RPMI, 4 hours, 37°C, peptide from 100 µM, flow cytometry; analyzed three times, mean; read-out: EC/IC50 (M) Binding assay: IC50, HLA-A*11:01
row,Compound,IC50 [M]
1,CC(C)[C@H](N)C(=O)N[C@H](C(=O)NCC(=O)N[C@@H](C)C(=O)N[C@@H](CO)C(=O)NCC(=O)N[C@H](C(=O)NCC(=O)N[C@@H](CCCCN)C(=O)O)C(C)C)C(C)C,1.27e-05
2,CC(C)[C@H](N)C(=O)N[C@H](C(=O)N[C@H](C(=O)NCC(=O)N[C@@H](C)C(=O)N[C@@H](CO)C(=O)NCC(=O)N[C@H](C(=O)NCC(=O)N[C@@H](CCCCN)C(=O)O)C(C)C)C(C)C)C(C)C,1.02e-05
3,VVGARGVGK,0.000157

# Target: HLA-A*03:01 (Homo sapiens, UniProt P04439)
# Assay: not given
# Format: binding
# Settings: not given
row,Compound,EC50 [µM]
1,"CC[C@H](C)[C@H](N)C(=O)N[C@@H](CC(C)C)C(=O)N[C@@H](CCCNC(=N)N)C(=O)NCC(=O)N[C@@H](CO)C(=O)N[C@H](C(=O)N[C@@H](C)C(=O)N[C@@H](Cc1c[nH]cn1)C(=O)N[C@@H](CCCCN)C(=O)O)C(C)C [Flu-NP 265-273, reference compound]",6.33
2,VVGAAGVGK,277
3,VVVGAAGVGK,94
4,VVVGARGVGK,69.7
